Measurements reported in patent US10725001B2, “Liquid crystal composition, pH sensing device using the same, and pH sensing device kit using the same” (Tamkang University, priority 2016, dated 2020).

Assay: Acid dissociation constants (pKa) of the dopant compounds
Format: physicochemical
Conditions: read-out: acid dissociation constant (pKa)

Row | Compound | pKa
1 | CCCCCCc1ccc(-c2ccc(C(=O)O)cc2)cc1 [Formula (I-1)] | 7.68
2 | CCCCCCCCCCOc1ccc(-c2ccc(C(=O)O)cc2)cc1 [Formula (I-3)] | 9.77
3 | CCCCCCCCOc1ccc(-c2ccc(C(=O)O)cc2)cc1 [Formula (I-2)] | 7.66
4 | CCCCCCCCCCCCOc1ccc(-c2ccc(C(=O)O)cc2)cc1 [Formula (I-4)] | 8.74
